From PubChem BioAssay AID1963848 (Molecular Pharmacology Branch, DTP, NCI, 2024)

Test system: 379773-124-R-J2-PDC spheroid viability
Test: Anticancer human tumor 379773-124-R-J2-PDC patient-derived endometrial carcinoma cell line growth inhibition [POLQ]
Conditions: spheroids with HUVEC and MSC; for IC50: curve of first compound; for viability, T/C: stronger effect = lower value; active = viability on the fitted dose curve at most 10% of control; inactive = the rest
How it was run: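 Three-cell-type spheroids modelling solid tumor plus stroma served as the readout system; POL inhibitors were tested individually and in combination, concentration ranges set by clinical Cmax where known.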

[1] = second compound 0.0316 µM, first compound 0.0316 µM
[2] = second compound 0.0316 µM, first compound 0.1 µM
[3] = second compound 0.0316 µM, first compound 0.316 µM
[4] = second compound 0.0316 µM, first compound 1 µM
[5] = second compound 0.0316 µM, first compound 3.16 µM
[6] = second compound 0.0316 µM, first compound 10 µM
[7] = second compound 0.1 µM, first compound 0.0316 µM
[8] = second compound 0.1 µM, first compound 0.1 µM
[9] = second compound 0.1 µM, first compound 0.316 µM
[10] = second compound 0.1 µM, first compound 1 µM
[11] = second compound 0.1 µM, first compound 3.16 µM
[12] = second compound 0.1 µM, first compound 10 µM
[13] = second compound 0.316 µM, first compound 0.0316 µM
[14] = second compound 0.316 µM, first compound 0.1 µM
[15] = second compound 0.316 µM, first compound 0.316 µM
[16] = second compound 0.316 µM, first compound 1 µM
[17] = second compound 0.316 µM, first compound 3.16 µM
[18] = second compound 0.316 µM, first compound 10 µM
[19] = second compound 1 µM, first compound 0.0316 µM
[20] = second compound 1 µM, first compound 0.1 µM
[21] = second compound 1 µM, first compound 0.316 µM
[22] = second compound 1 µM, first compound 1 µM
[23] = second compound 1 µM, first compound 3.16 µM
[24] = second compound 1 µM, first compound 10 µM
[25] = second compound 3.16 µM, first compound 0.0316 µM
[26] = second compound 3.16 µM, first compound 0.1 µM
[27] = second compound 3.16 µM, first compound 0.316 µM
[28] = second compound 3.16 µM, first compound 1 µM
[29] = second compound 3.16 µM, first compound 3.16 µM
[30] = second compound 3.16 µM, first compound 10 µM
[31] = second compound 10 µM, first compound 0.0316 µM
[32] = second compound 10 µM, first compound 0.1 µM
[33] = second compound 10 µM, first compound 0.316 µM
[34] = second compound 10 µM, first compound 1 µM
[35] = second compound 10 µM, first compound 3.16 µM
[36] = second compound 10 µM, first compound 10 µM
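Note: spheroids exposed to drugs for seven days before readout.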
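Throughout, for viability, T/C: percent viability relative to DMSO vehicle control taken as 100%.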

CC(C)n1c(=O)n(C)c2cnc3cc(F)c(-c4ccc(OCCCN5CCCCC5)nc4)cc3c21 + COC1C(OC(N)=O)C(O)C(Oc2ccc3c(O)c(NC(=O)c4ccc(O)c(CC=C(C)C)c4)c(=O)oc3c2C)OC1(C)C
> 10000 nM: IC50 (second compound 0.0316 µM) | IC50 (second compound 0.1 µM) | IC50 (second compound 0.316 µM) | IC50 (second compound 1 µM) | IC50 (second compound 3.16 µM) | IC50 (second compound 10 µM)
inactive: viability, T/C [1] 92.3% | viability, T/C [2] 74% | viability, T/C [3] 86.2% | viability, T/C [4] 75.7% | viability, T/C [5] 67.5% | viability, T/C [6] 56.5% | viability, T/C [7] 85.2% | viability, T/C [8] 87.4% | viability, T/C [9] 87.5% | viability, T/C [10] 76.6% | viability, T/C [11] 64.3% | viability, T/C [12] 68.4% | viability, T/C [13] 99.1% | viability, T/C [14] 81.2% | viability, T/C [15] 84% | viability, T/C [16] 75.3% | viability, T/C [17] 67.5% | viability, T/C [18] 60.5% | viability, T/C [19] 85.5% | viability, T/C [20] 81.2% | viability, T/C [21] 77.4% | viability, T/C [22] 71.7% | viability, T/C [23] 69.8% | viability, T/C [24] 75.7% | viability, T/C [25] 78% | viability, T/C [26] 81.7% | viability, T/C [27] 77.7% | viability, T/C [28] 68.1% | viability, T/C [29] 77.7% | viability, T/C [30] 80.4% | viability, T/C [31] 80.2% | viability, T/C [32] 74.6% | viability, T/C [33] 79.7% | viability, T/C [34] 72.2% | viability, T/C [35] 80.7% | viability, T/C [36] 64.9%

CC1COCCN1c1cc(-c2ccnn2C)c2ccnc(-c3ccn[nH]3)c2n1 (centres undefined) + COC1C(OC(N)=O)C(O)C(Oc2ccc3c(O)c(NC(=O)c4ccc(O)c(CC=C(C)C)c4)c(=O)oc3c2C)OC1(C)C
111 nM: IC50 (second compound 3.16 µM)
81.1 nM: IC50 (second compound 0.1 µM)
104 nM: IC50 (second compound 0.316 µM)
active: viability, T/C [4] 9.05% | viability, T/C [5] 8.71% | viability, T/C [6] 5.49% | viability, T/C [9] 9.78% | viability, T/C [10] 8.09% | viability, T/C [11] 9.06% | viability, T/C [12] 6.55% | viability, T/C [16] 7.55% | viability, T/C [17] 8.92% | viability, T/C [18] 7.56% | viability, T/C [21] 9.64% | viability, T/C [22] 8.17% | viability, T/C [23] 9.6% | viability, T/C [24] 5.36% | viability, T/C [28] 7.3% | viability, T/C [29] 8.49% | viability, T/C [30] 6.71% | viability, T/C [34] 7.51% | viability, T/C [35] 9.13% | viability, T/C [36] 5.64%
inactive: viability, T/C [1] 75.7% | viability, T/C [2] 42.4% | viability, T/C [3] 10.5% | viability, T/C [7] 85.5% | viability, T/C [8] 42.1% | viability, T/C [13] 82.7% | viability, T/C [14] 51.4% | viability, T/C [15] 11.2% | viability, T/C [19] 83.3% | viability, T/C [20] 38.1% | viability, T/C [25] 64.1% | viability, T/C [26] 54% | viability, T/C [27] 11.1% | viability, T/C [31] 86.9% | viability, T/C [32] 42.7% | viability, T/C [33] 10.4%
76.8 nM: IC50 (second compound 0.0316 µM)
73.9 nM: IC50 (second compound 1 µM)
82.7 nM: IC50 (second compound 10 µM)
